Where two headings read alike, the source gives them in different places.
Legend:
[1] = target: T1, Recombinant HCV polymerase (Hepatitis C virus genotype 1b, UniProt P26663); test: HCV Polymerase Inhibition Assay; type: biochemical; details: primer/template-directed transcription, 30 minutes at 30° C.
T1 construct: 2.5 pmoles (0.15 μg) HCV polymerase protein
In short: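 Recombinant genotype 1b polymerase (2.5 pmol) extended biotin-dG12 on poly(rC)300 with 1 μM GTP plus α-32P-GTP, pH 7.2, 30 min at 30 °C, 1% DMSO final; DE-filter-bound product counted. IC50 fitted from triplicate cpm, refitted with enzyme-concentration (30 nM) tight-binding equation when below 200 nM.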

[2] = target: T2, NS5B, the RNA-dependent RNA polymerase (Hepatitis C virus genotype 1b, UniProt P26663); details: Ishii et al. 1999; cited from earlier work
T2 construct: NS5B, the RNA-dependent RNA polymerase, is also a useful viral target

pestivirus = details: Baginski et al. 2000; cited from earlier work

T1 sequence (P26663 2420-3010): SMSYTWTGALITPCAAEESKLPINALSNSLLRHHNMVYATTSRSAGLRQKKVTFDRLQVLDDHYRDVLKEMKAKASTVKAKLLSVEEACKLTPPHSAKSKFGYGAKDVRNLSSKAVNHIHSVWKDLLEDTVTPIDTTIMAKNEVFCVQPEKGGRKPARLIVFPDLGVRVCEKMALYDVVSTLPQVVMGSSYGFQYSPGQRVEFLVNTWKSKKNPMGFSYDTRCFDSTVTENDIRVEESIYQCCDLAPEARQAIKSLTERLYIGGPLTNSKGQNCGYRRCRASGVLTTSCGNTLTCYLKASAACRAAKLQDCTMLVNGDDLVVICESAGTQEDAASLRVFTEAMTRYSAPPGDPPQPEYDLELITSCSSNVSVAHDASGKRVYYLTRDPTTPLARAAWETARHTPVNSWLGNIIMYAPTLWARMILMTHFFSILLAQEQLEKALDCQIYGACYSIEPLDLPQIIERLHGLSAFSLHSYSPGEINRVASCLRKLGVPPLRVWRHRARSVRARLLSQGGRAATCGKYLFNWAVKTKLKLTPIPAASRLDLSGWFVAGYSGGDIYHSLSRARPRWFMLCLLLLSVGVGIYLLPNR
T2 sequence (P26663 2420-3010): as above

SMILES	melting point	IC50 ([1]; category symbol)	further results
Cc1cc(SC2=C(O)CC(CCc3ccc(O)cc3)(C3CCCC3)OC2=O)c(C(C)(C)C)cc1NS(=O)(=O)c1ccccc1 (racemic) [Example 141, (+/−)N-(5-tert-butyl-{6-cyclopentyl-4-hydroxy-6-[2-(4-hydroxy-phenyl)-ethyl]-2-oxo-5,6-dihydro-2H-pyran-3-ylsulfanyl}-2-methyl-phenyl)-benzenesulfonamide]	125 to 127 °C	1 to 10 µM	
Nc1ccn([C@@H]2CS[C@H](COP(=O)(O)OP(=O)(O)OP(=O)(O)O)O2)c(=O)n1 [3TC; lamivudine triphosphate]			Inhibition of RdRp activity [2]: Inhibition of RdRp activity
O=C1CC(=O)OC(CCc2ccccc2)(C2CCCC2)C1 (stereo not shown) [Example 35, 6-Cyclopentyl-6-phenethyl-dihydro-pyran-2,4-dione]	96 to 99 °C	10 to 50 µM	
CC(=O)Nc1cc(C(C)(C)C)c(SC2=C(O)CC(CCc3ccc(O)cc3)(C3CCCCC3)OC2=O)cc1C (stereo not shown) [Example 142, N-(5-tert-butyl4-{6-cyclohexyl-4-hydroxy-6-[2-(4-hydroxy-phenyl)-ethyl]-2-oxo-5,6-dihydro-2H-pyran-3-ylsulfanyl)-2-methyl-phenyl)-acetamide]	> 154 °C	> 50 µM	
Cc1cc(SC2=C(O)CC(CCc3ccc(O)cc3)(C3CCCCC3)OC2=O)c(C(C)(C)C)cc1N (stereo not shown) [Example 143, 3-(4-Amino-2-tert-butyl-5-methyl-phenylsulfanyl)-6-cyclohexyl-4-hydroxy-6-[2-(4-hydroxy-phenyl)-ethyl]-5,6-dihydro-pyran-2-one]	> 133 °C	1 to 10 µM	
Cc1cc(SC2=C(O)CC(CCc3ccc(O)cc3)(C3CCCC3)OC2=O)c(C(C)(C)C)cc1OS(=O)(=O)N1CCN(C)CC1 (stereo not shown) [Example 147]	163 to 165 °C	1 to 10 µM	
Cc1cc(SC2=C(O)CC(CCc3ccc(O)cc3)(C3CCCC3)OC2=O)c(C(C)(C)C)cc1OCCO (stereo not shown) [Example 148, 3-[2-tert-butyl-4-(2-hydroxy-ethoxy)-5-methyl-phenylsulfanyl]-6-cyclopentyl-4-hydroxy-6-[2-(4-hydroxy-phenyl)-ethyl]-5,6-dihydro-pyran-2-one]	113 to 115 °C	1 to 10 µM	
CCNS(=O)(=O)Oc1cc(C(C)(C)C)c(SC2=C(O)CC(CCc3cccc(O)c3)(C3CCCC3)OC2=O)cc1C (stereo not shown) [Example 149, Ethyl-sulfamic acid 5-tert-butyl-4-{6-cyclopentyl-4-hydroxy-6-[2-(3-hydroxy-phenyl)-ethyl]-2-oxo-5,6-dihydro-2H-pyran-3-ylsulfanyl}-2-methyl-phenyl ester]	69 to 72 °C	> 50 µM	
CCCN(C1=C(O)C[C@@](CCc2cccc(O)c2)(C2CCCC2)OC1=O)c1ccccc1 [Example 155, 6-(S)-Cyclopentyl-4-hydroxy-6-[2-(3-hydroxy-phenyl)-ethyl]-3-(phenyl-propyl-amino)-5,6-dihydro-pyran-2-one]	74 to 76 °C	1 to 10 µM	
CCN(C1=C(O)C[C@@](CCc2ccc(O)cc2)(C2CCCC2)OC1=O)c1ccccc1 [Example 158]	90 to 92 °C		
CCCN(C1=C(O)CC(CCc2ccc(O)cc2)(C2CCCC2)OC1=O)c1ccccc1 (stereo not shown) [Example 159, 6-Cyclopentyl-4-hydroxy-6-[2-(4-hydroxy-phenyl)-ethyl]-3-(phenyl-propyl-amino)-5,6-dihydro-pyran-2-one]	95 °C	1 to 10 µM	
CCN(C1=C(O)CC(CCc2ccc(O)cc2)(C2CCCC2)OC1=O)c1ccccc1 (stereo not shown) [Example 160, Cyclopentyl-(ethyl-phenyl-amino)-hydroxy-[2-(4-hydroxy-phenyl)-ethyl]-5,6-dihydro-pyran-2-one]	83 to 85 °C	1 to 10 µM	
O=C1OC(CCc2ccc(O)cc2)(C2CCCC2)CC(O)=C1N(c1ccccc1)c1ccccc1 (stereo not shown) [Example 161, Cyclopentyl-diphenylamino-hydroxy-[2-(4-hydroxy-phenyl)-ethyl]-5,6-dihydro-pyran-2-one]	93 to 94 °C	1 to 10 µM	
COc1ccc(CCC2(C3CCCC3)CC(=O)C(C(=O)c3ccccc3)C(=O)O2)c(OC)c1 (stereo not shown) [Example 175, 3-Benzoyl-6-cyclopentyl-6-[2-(2,4-dimethoxy-phenyl)-ethyl]-dihydro-pyran-2,4-dione]		10 to 50 µM	
COc1ccc(CCC2(C3CCCC3)CC(=O)C(Cc3ccccc3)C(=O)O2)cc1Cl (stereo not shown) [Example 178, 3-Benzyl-6-[2-(3-chloro-4-methoxy-phenyl)-ethyl]-6-cyclopentyl-dihydro-pyran-2,4-dione]			IC50 ([1]; read-out: IC50(μM) Category): 0.6 µM
Cc1cc(SC2=C(O)CC(C3CCCC3)(C3CCCC3)OC2=O)c(C(C)(C)C)cc1N [Example 179, 3-(4-Amino-2-tert-butyl-5-methyl-phenylsulfanyl)-6,6-dicyclopentyl-4-hydroxy-5,6-dihydro-pyran-2-one]	163 to 165 °C		IC50 ([1]; read-out: IC50(μM) Category): 15.5 µM
Cc1cc(SC2=C(O)CC(C3CCCC3)(C3CCCC3)OC2=O)c(C(C)(C)C)cc1CO [Example 180, 3-(2-tert-butyl-4-hydroxymethyl-5-methyl-phenylsulfanyl)-6,6-dicyclopentyl-4-hydroxy-5,6-dihydro-pyran-2-one]	158 to 160 °C		IC50 ([1]; read-out: IC50(μM) Category): 15 µM
Cc1cc(SC2=C(O)CC(C3CCCC3)(C3CCCC3)OC2=O)c(C(C)(C)C)cc1OCCO [Example 181, 3-[2-tert-butyl-4-(2-hydroxy-ethoxy)-5-methyl-phenylsulfanyl]-6,6-dicyclopentyl-4-hydroxy-5,6-dihydro-pyran-2-one]	100 to 102 °C		IC50 ([1]; read-out: IC50(μM) Category): 36 µM
Cc1cc(SC2=C(O)CC(C3CCCC3)(C3CCCC3)OC2=O)c(C(C)(C)C)cc1OS(=O)(=O)c1cn(C)cn1 [Example 182, 1-methyl-1H-imidazole-4-sulfonic acid 5-tert-butyl-4-(6,6-dicyclopentyl-4-hydroxy-2-oxo-5,6-dihydro-2H-pyran-3-ylsulfanyl)-2-methyl-phenyl ester]	143 to 145 °C	10 to 50 µM	
CC(C)(C)c1cc2nc(N)sc2cc1SC1=C(O)CC(C2CCCC2)(C2CCCC2)OC1=O [Example 183, 3-(2-Amino-5-tert-butyl-benzothiazol-6-ylsulfanyl)-6,6-dicyclopentyl-4-hydroxy-5,6-dihydro-pyran-2-one]		10 to 50 µM	
CCCN(C1=C(O)CC(C2CCCC2)(C2CCCC2)OC1=O)c1cccc(NS(=O)(=O)c2ccccn2)c1 [Example 184, Pyridine-2-sulfonic acid {3-[(6,6-dicyclopentyl-4-hydroxy-2-oxo-5,6-dihydro-2H-pyran-3-yl)-propyl-amino]-phenyl}-amide]	105 to 107 °C	10 to 50 µM	
CCCN(C1=C(O)CC(C2CCCC2)(C2CCCC2)OC1=O)c1cccc(NS(=O)(=O)c2cccs2)c1 [Example 186, Thiophene-2-sulfonic acid {3-[(6,6-dicyclopentyl-4-hydroxy-2-oxo-5,6-dihydro-2H-pyran-3-yl)-propyl-amino]-phenyl}-amide]	92 to 95 °C	10 to 50 µM	
CCCN(C1=C(O)CC(C2CCCC2)(C2CCCC2)OC1=O)c1cccc(N)c1 [Example 187, 3-[(3-Amino-phenyl)-propyl-amino]-6,6-dicyclopentyl-4-hydroxy-5,6-dihydro-pyran-2-one]	173 to 175 °C	> 50 µM	
CCCN(CCC)CCSc1nnc2c(n1)[nH]c1ccccc12 [VP32947, 3-[((2-dipropylamino)ethyl)thio]-5H-1,2,4-triazino[5,6-b]indole]			inhibitor of pestivirus replication (pestivirus): potent inhibitor
O=C(O)CP(=O)(O)O [phosphonoacetic acid, reference compound]			Inhibition of RdRp activity [2]: Inhibition of RdRp activity

— patent publication US7115658B2 (priority 2002, dated 2006)
